# Measured values reported in patent US6642004B2, “Method for measuring nucleotides” (FMC Corporation, priority 2000, dated 2003).
# Where two headings read alike, the source gives them in different places.
# Experiments:
# Sf9 cells = assay: quantification of cAMP generated in Sf9 cells after compound treatment ([3H]cAMP competition for bovine adrenal binding protein, single vessel); type: cell-based
# Procedure: On the day of the experiment, four-day sold Sf9 cells for use in the first step, with cell density at about 5,000,000 to about 6,000,000 cells, were spun in a Biofuge 15 centrifuge (available from Heneaus Instruments, Germany at 1310 rpm (500 g) for five minutes. After this time, the supernatant was discarded and sufficient Sf9 serum free medium (Sf900 II SFM) was added to the resulting cell pellet give a final concentration of 2,000,000 cells /ml. To these cells was added 0.02 ml of Solution J. Upon completion of addition, the resulting solution was gently mixed and then incubated at ambient temperature for 40 minutes, for use, below .
# This method was performed in the manner disclosed in Example 1 except that synephrine was used rather than amitraz, and the concentrations of the synephrine dilutions were in the range of 0.00369 mM to 1.0 mM rather than 0.00123 mM to 0.3 mM.
# This method was performed in the manner disclosed in Example 1 except that DL-octopamine was used rather than amitraz, and the concentrations of the DL-octopamine dilutions were in the range of about 0.0123 mM to about 3.0 mM rather than about 0.00123 mM to about 0.3 mM.
# This method was performed in the manner disclosed in Example 1 except that DCDM was used rather than amitraz, and the concentrations of the DCDM dilutions were in the range of 0.000123 mM to about 0.03 mM rather than 0.00123 mM to about 0.3 mM.
# [1] = test system: protein derived from a bovine adrenal gland
# Procedure: Thereafter, 50 μl of the above-prepared Sf9 cell solution was added to all of the wells. The microplates were incubated at ambient temperature for 45 minutes. After this time, the Sf9 cells were lysed by adding 50 μl of Solution H. The microplates were incubated a second time at ambient temperature for 15 to 20 minutes. After this time, 25 μl of Solution R followed by 25 μl of Solution Q were added to the microplates. The microplates were incubated for a third time at ambient temperature with shaking at 125 rpm for 90 minutes. The resulting mixtures were filtered under reduced pressure through glass fiber filtermats, which were soaked in 500 ml of Solution G for about 30 minutes prior to use. The filtermats were washed for ten seconds with ice-cold Solution F and then, dried at 60° C. for 45 to 60 minutes in a Stabil-Therm® oven (available from Blue M Electric Co., Blue Island, Ill.). After this time, the amount of the radiolabeled 3′,5′-monophosphate/binding protein complex bound to the filtermats was determined by the aforesaid quantification method.
# [2] = 0.000111 mM in the synephrine series
compound,measurement,setting,value
NCC(O)c1ccc(O)cc1 (racemic) [DL-octopamine],Specific Counts (dpm),Sf9 cells; 0.00041 mM,5942.2 dpm
same,Total Counts (dpm) Determined,Sf9 cells; 0.00041 mM,6899 dpm
same,inhibition at 0.41 µM,Sf9 cells; 0.00041 mM,6.9%
same,Specific Counts (dpm),Sf9 cells; 0.00123 mM,5639.1 dpm
same,Total Counts (dpm) Determined,Sf9 cells; 0.00123 mM,6595.9 dpm
same,inhibition at 1.23 µM,Sf9 cells; 0.00123 mM,11.7%
same,Specific Counts (dpm),Sf9 cells; 0.0037 mM,4952.4 dpm
same,Total Counts (dpm) Determined,Sf9 cells; 0.0037 mM,5909.2 dpm
same,inhibition at 3.7 µM,Sf9 cells; 0.0037 mM,22.4%
same,Specific Counts (dpm),Sf9 cells; 0.0111 mM,3295.5 dpm
same,Total Counts (dpm) Determined,Sf9 cells; 0.0111 mM,4252.3 dpm
same,inhibition at 11.1 µM,Sf9 cells; 0.0111 mM,48.4%
same,Specific Counts (dpm),Sf9 cells; 0.0333 mM,1934.3 dpm
same,Total Counts (dpm) Determined,Sf9 cells; 0.0333 mM,2891.1 dpm
same,inhibition at 33.3 µM,Sf9 cells; 0.0333 mM,69.7%
same,Specific Counts (dpm),Sf9 cells; 0.1 mM,1267.9 dpm
same,Total Counts (dpm) Determined,Sf9 cells; 0.1 mM,2224.7 dpm
same,inhibition at 100 µM,Sf9 cells; 0.1 mM,80.1%
"Cc1ccc(/N=C/N(C)/C=N/c2ccc(C)cc2C)c(C)c1 [Amitraz, amitraz]",Specific Counts (dpm),Sf9 cells; 0.000041 mM,6020.4 dpm
same,Total Counts (dpm) Determined,Sf9 cells; 0.000041 mM,6899.4 dpm
same,inhibition at 0.041 µM,Sf9 cells; 0.000041 mM,2.5%
same,Specific Counts (dpm),Sf9 cells; 0.000123 mM,5130.2 dpm
same,Total Counts (dpm) Determined,Sf9 cells; 0.000123 mM,6009.2 dpm
same,inhibition at 0.123 µM,Sf9 cells; 0.000123 mM,16.9%
same,Specific Counts (dpm),Sf9 cells; 0.00037 mM,3939.2 dpm
same,Total Counts (dpm) Determined,Sf9 cells; 0.00037 mM,4818.2 dpm
same,inhibition at 0.37 µM,Sf9 cells; 0.00037 mM,36.2%
same,Specific Counts (dpm),Sf9 cells; 0.00111 mM,2562.5 dpm
same,Total Counts (dpm) Determined,Sf9 cells; 0.00111 mM,3441.5 dpm
same,inhibition at 1.11 µM,Sf9 cells; 0.00111 mM,58.5%
same,Specific Counts (dpm),Sf9 cells; 0.00333 mM,1428.2 dpm
same,Total Counts (dpm) Determined,Sf9 cells; 0.00333 mM,2307.2 dpm
same,inhibition at 3.33 µM,Sf9 cells; 0.00333 mM,76.9%
same,Specific Counts (dpm),Sf9 cells; 0.01 mM,1049.5 dpm
same,Total Counts (dpm) Determined,Sf9 cells; 0.01 mM,1928.5 dpm
same,inhibition at 10 µM,Sf9 cells; 0.01 mM,83%
"CN=CNc1ccc(Cl)cc1C [DCDM, demethylchlordimeform]",% Inhibition,Sf9 cells; 0.0000041 mM,11.7%
same,Specific Counts (dpm),Sf9 cells; 0.0000041 mM,5687.8 dpm
same,Total Counts (dpm) Determined,Sf9 cells; 0.0000041 mM,6512.1 dpm
same,% Inhibition,Sf9 cells; 0.0000123 mM,23.1%
same,Specific Counts (dpm),Sf9 cells; 0.0000123 mM,4954.7 dpm
same,Total Counts (dpm) Determined,Sf9 cells; 0.0000123 mM,5779.0 dpm
same,% Inhibition,Sf9 cells; 0.000037 mM,38%
same,Specific Counts (dpm),Sf9 cells; 0.000037 mM,3993.7 dpm
same,Total Counts (dpm) Determined,Sf9 cells; 0.000037 mM,4818 dpm
same,% Inhibition,Sf9 cells; 0.000111 mM,58.3%
same,Specific Counts (dpm),Sf9 cells; 0.000111 mM,2689.4 dpm
same,Total Counts (dpm) Determined,Sf9 cells; 0.000111 mM,3513.7 dpm
same,% Inhibition,Sf9 cells; 0.000333 mM,77.1%
same,Specific Counts (dpm),Sf9 cells; 0.000333 mM,1472.8 dpm
same,Total Counts (dpm) Determined,Sf9 cells; 0.000333 mM,2297.1 dpm
same,% Inhibition,Sf9 cells; 0.001 mM,84.1%
same,Specific Counts (dpm),Sf9 cells; 0.001 mM,1026.2 dpm
same,Total Counts (dpm) Determined,Sf9 cells; 0.001 mM,1850.5 dpm
"CNCC(O)c1ccc(O)cc1 (centres unmarked) [Synephrine, synephrine]",Specific Counts (dpm),Sf9 cells; [2],4516.2 dpm
same,Total Counts (dpm) Determined,Sf9 cells; [2],5487 dpm
same,Specific Counts (dpm),Sf9 cells; 0.000123 mM,6081.7 dpm
same,Total Counts (dpm) Determined,Sf9 cells; 0.000123 mM,7052.5 dpm
same,inhibition at 0.123 µM,Sf9 cells; 0.000123 mM,3.1%
same,Specific Counts (dpm),Sf9 cells; 0.00037 mM,5260 dpm
same,Total Counts (dpm) Determined,Sf9 cells; 0.00037 mM,6230.8 dpm
same,inhibition at 0.37 µM,Sf9 cells; 0.00037 mM,16.2%
same,Specific Counts (dpm),Sf9 cells; 0.00333 mM,2732.7 dpm
same,Total Counts (dpm) Determined,Sf9 cells; 0.00333 mM,3703.5 dpm
same,inhibition at 3.33 µM,Sf9 cells; 0.00333 mM,56.4%
same,Specific Counts (dpm),Sf9 cells; 0.011 mM,1605.1 dpm
same,Total Counts (dpm) Determined,Sf9 cells; 0.011 mM,2575.9 dpm
same,inhibition at 11 µM,Sf9 cells; 0.011 mM,74.4%
same,Specific Counts (dpm),Sf9 cells; 0.033 mM,1074.6 dpm
same,Total Counts (dpm) Determined,Sf9 cells; 0.033 mM,2045.4 dpm
same,inhibition at 33 µM,Sf9 cells; 0.033 mM,82.9%
"Nc1ncnc2c1ncn2[C@@H]1O[C@@H]2COP(=O)(O)O[C@H]2[C@H]1O [cAMP Standard, cyclic adenosine 3′,5′-monophosphate]",% Inhibition,[1]; 0.0000026 mM,20.3%
same,Specific Counts (dpm),[1]; 0.0000026 mM,5398.5 dpm
same,Total Counts (dpm) Determined,[1]; 0.0000026 mM,5791 dpm
same,% Inhibition,[1]; 0.0000078 mM,37.5%
same,Specific Counts (dpm),[1]; 0.0000078 mM,4234.8 dpm
same,Total Counts (dpm) Determined,[1]; 0.0000078 mM,4627.3 dpm
same,% Inhibition,[1]; 0.000023 mM,61.7%
same,Specific Counts (dpm),[1]; 0.000023 mM,2595.8 dpm
same,Total Counts (dpm) Determined,[1]; 0.000023 mM,2988.3 dpm
same,% Inhibition,[1]; 0.00007 mM,78.8%
same,Specific Counts (dpm),[1]; 0.00007 mM,1435.8 dpm
same,Total Counts (dpm) Determined,[1]; 0.00007 mM,1828.3 dpm
same,% Inhibition,[1]; 0.00021 mM,90.4%
same,Specific Counts (dpm),[1]; 0.00021 mM,648.8 dpm
same,Total Counts (dpm) Determined,[1]; 0.00021 mM,1041.3 dpm
same,% Inhibition,[1]; 0.00064 mM,95.5%
same,Specific Counts (dpm),[1]; 0.00064 mM,307.6 dpm
same,Total Counts (dpm) Determined,[1]; 0.00064 mM,700.3 dpm
